Patent publication US10485787B2, “Oral dosage forms of bendamustine and therapeutic use thereof” (ASTELLAS DEUTSCHLAND GMBH, priority 2010, dated 2019)
Where a name gives a salt, the structure may show the parent alone.

What was measured:
[1] = Phase 1 crossover study, plasma pharmacokinetics of bendamustine, M3 and M4 (Example 23)
Method: 14 patients who were suffering from multiple myeloma, B-cell type chronic lymphocytic leukemia or advanced indolent non-Hodgkin's lymphoma were enrolled and were treated with bendamustine. […] After signing the informed consent form and following the screening period (days −21 to −2), eligible patients were assigned a patient number which was specific for each study site. Patients were randomized to receive one of the following on day 1 followed by the other on day 8: • a single oral dose of 110.2 mg (2×55.1 mg) bendamustine HCl • a single intravenous dose of 100 mg bendamustine HCl
Bendamustine was provided a) orally as capsules, a LFHC formulation (liquid-filled, hard-shell capsule) and b) intravenously as a solution after reconstituting a powder for the preparation of a solution for injection. The LFHC formulation (per capsule) was prepared from 55.1 mg bendamustine hydrochloride, 1.2 mg methylparaben, 0.12 mg […], 0.12 mg butylated hydroxytoluene, 10.9 mg ethanol and 532.56 mg Cremophor® RH40. The vial with powder for concentrate for solution was the marketed product in Germany (Ribomustine®) which contains per vial 100 mg of bendamustine hydrochloride and mannitol as an excipient. This product was reconstituted with water for injection to a final concentration of 2.5 mg/ml of bendamustine HCl and was further diluted with 0.9% NaCl until about 500 ml before administration to the patient, in accordance with the instructions of the package insert.
Patients were admitted to the study site for 2 periods; days −1 to 2 (period 1) and days 7 to 9 (period 2). A total of 12 patients was to be randomized to receive treatment. Six patients were to receive treatment with a single oral dose of 110.2 mg (2×55.1 mg) bendamustine HCl (day 1) followed by a single intravenous dose of 100 mg bendamustine HCl (day 8) while 6 other patients were to receive treatment in the alternate order. Patients underwent a washout period of at least 7 days between treatments.
After oral and intravenous administration of bendamustine the concentration of bendamustine, as well as that of the active metabolites of bendamustine (M3 and M4), were determined in plasma and urine samples on day 1 and day 8. Patients returned to the study site for an end-of-study visit 7 to 14 days after completion of the second treatment period, or after early discharge/withdrawal. Subsequently the pharmacokinetic parameters of bendamustine and its metabolites were calculated.

[2] = Phase 1 crossover study, urine pharmacokinetics of bendamustine, M3 and M4 (Example 23); format: in vivo, patients; details: for CL renal: human; for CL renal / %Aeinf / %Aelast: urine, Bendamustine HCl; for percentage of the dose excreted in urine as the metabolite: oral administration; for percentage of the dose excreted in urine unchanged: oral bendamustine
Method: Bendamustine was provided a) orally as capsules, a LFHC formulation (liquid-filled, hard-shell capsule) and b) intravenously as a solution after reconstituting a powder for the preparation of a solution for injection. The LFHC formulation (per capsule) was prepared from 55.1 mg bendamustine hydrochloride, 1.2 mg methylparaben, 0.12 mg polyparaben, 0.12 mg butylated hydroxytoluene, 10.9 mg ethanol and 532.56 mg Cremophor® RH40. The vial with powder for concentrate for solution was the marketed product in Germany (Ribomustine®) which contains per vial 100 mg of bendamustine hydrochloride and mannitol as an excipient. This product was reconstituted with water for injection to a final concentration of 2.5 mg/ml of bendamustine HCl and was further diluted with 0.9% NaCl until about 500 ml before administration to the patient, in accordance with the instructions of the package insert.
After oral and intravenous administration of bendamustine the concentration of bendamustine, as well as that of the active metabolites of bendamustine (M3 and M4), were determined in plasma and urine samples on day 1 and day 8. […] Subsequently the pharmacokinetic parameters of bendamustine and its metabolites were calculated.

[3] = cited from earlier work
[4] = a range of organic solvents; cited from earlier work
[5] = Phase 1 crossover study, safety and tolerability (Example 23); format: in vivo, patients; details: oral and intravenous single doses
Method: Bendamustine was provided a) orally as capsules, a LFHC formulation (liquid-filled, hard-shell capsule) and b) intravenously as a solution after reconstituting a powder for the preparation of a solution for injection. The LFHC formulation (per capsule) was prepared from 55.1 mg bendamustine hydrochloride, 1.2 mg methylparaben, 0.12 mg polyparaben, 0.12 mg butylated hydroxytoluene, 10.9 mg ethanol and 532.56 mg Cremophor® RH40. The vial with powder for concentrate for solution was the marketed product in Germany (Ribomustine®) which contains per vial 100 mg of bendamustine hydrochloride and mannitol as an excipient. […]

[6] = Stability of aqueous solution of bendamustine as a function of pH; format: physicochemical

Cn1c(CCCC(=O)O)nc2cc(N(CCCl)CCCl)ccc21 [bendamustine hydrochloride]
AUC(0-inf) ([1]; human, plasma, iv, 100 mg): 4790 ng·h/mL
AUC(0-t) ([1]; human, plasma, iv, 100 mg): 4780 ng·h/mL
Cmax ([1]; human, plasma, iv, 100 mg): 5900 ng/mL
Vd ([1]; human, plasma, iv, 100 mg, Vss, plasma, Bendamustine HCl, 100 mg intravenously, Mean): 10.3 L
Vd ([1]; human, plasma, iv, 100 mg, Vz, Bendamustine HCl, 100 mg intravenously, Mean): 14.7 L
half-life ([1]; human, plasma, iv, 100 mg, t1/2, plasma, Bendamustine HCl, 100 mg intravenously, Mean): 30.2 min
Tmax ([1]; human, plasma, iv, 100 mg, Bendamustine HCl, 100 mg intravenously, Mean): 31.4 min
AUC(0-inf) ([1]; human, plasma, po, 110.2 mg): 3900 ng·h/mL
AUC(0-t) ([1]; human, plasma, po, 110.2 mg): 3890 ng·h/mL
Cmax ([1]; human, plasma, po, 110.2 mg): 3170 ng/mL
Vd/F ([1]; human, plasma, po, 110.2 mg): 20.2 L
half-life ([1]; human, plasma, po, 110.2 mg, t1/2, plasma, Bendamustine HCl, 110.2 mg orally, Mean): 27.7 min
Tmax ([1]; human, plasma, po, 110.2 mg, Bendamustine HCl, 110.2 mg orally, Mean): 56.8 min
CL ([1]; plasma, Bendamustine HCl, 100 mg intravenously, Mean): 21.2 L/h
CL renal ([2]; iv, 100 mg, 100 mg intravenously, Mean): 6.42 mL/min
CL renal ([2]; iv, 100 mg, 100 mg intravenously, Median): 3.37 mL/min
CL renal ([2]; iv, 100 mg, 100 mg intravenously, Min-max): 1 to 23.3 mL/min
CL renal ([2]; po, 110.2 mg, 110.2 mg orally, Mean): 13.1 mL/min
CL renal ([2]; po, 110.2 mg, 110.2 mg orally, Median): 13 mL/min
CL renal ([2]; po, 110.2 mg, 110.2 mg orally, Min-max): 3 to 33.3 mL/min
%Aeinf ([2]; 100 mg intravenously, Mean): 2.07%
%Aelast ([2]; 100 mg intravenously, Mean): 2.07%
%Aeinf ([2]; 100 mg intravenously, Median): 1.22%
%Aelast ([2]; 100 mg intravenously, Median): 1.23%
%Aeinf ([2]; 100 mg intravenously, Min-max): 0.27-8.8%
%Aelast ([2]; 100 mg intravenously, Min-max): 0.27-8.8%
%Aeinf ([2]; 110.2 mg orally, Mean): 2.64%
%Aelast ([2]; 110.2 mg orally, Mean): 2.66%
%Aeinf ([2]; 110.2 mg orally, Median): 2.23%
%Aelast ([2]; 110.2 mg orally, Median): 2.23%
%Aeinf ([2]; 110.2 mg orally, Min-max): 0.40-5.8%
%Aelast ([2]; 110.2 mg orally, Min-max): 0.40-5.9%
time at which maximal plasma levels were detectable ([3]; oral capsules, 250-350 mg, 7 patients (Preiss 1985)): ≤ 1 h
oral bioavailability, inter-individual range ([3]; similar study, Preiss et al. 1989): 25-121%
solubility in organic solvents [4]: slightly or very slightly soluble

Cn1c(C(O)CCC(=O)O)nc2cc(N(CCCl)CCCl)ccc21 (stereo not drawn) [Example M3, γ-hydroxybendamustine]
Mean AUCinf of bendamustine, times higher than for the metabolite ([1]; oral administration): 10.6 times
percentage of the dose excreted in urine as the metabolite [2]: 0.6%
%Aeinf ([2]; 100 mg intravenously, Mean): 0.459%
%Aelast ([2]; 100 mg intravenously, Mean): 0.457%
%Aeinf ([2]; 100 mg intravenously, Median): 0.354%
%Aelast ([2]; 100 mg intravenously, Median): 0.353%
%Aeinf ([2]; 100 mg intravenously, Min-max): 0.018-1.6%
%Aelast ([2]; 100 mg intravenously, Min-max): 0.018-1.6%
%Aeinf ([2]; 110.2 mg orally, Mean): 0.611%
%Aelast ([2]; 110.2 mg orally, Mean): 0.61%
%Aeinf ([2]; 110.2 mg orally, Median): 0.537%
%Aelast ([2]; 110.2 mg orally, Median): 0.553%
%Aeinf ([2]; 110.2 mg orally, Min-max): 0.13-1.5%
%Aelast ([2]; 110.2 mg orally, Min-max): 0.12-1.6%

O=C(O)CCCc1nc2cc(N(CCCl)CCCl)ccc2[nH]1 [Example M4, N-desmethylbendamustine]
Mean AUCinf of bendamustine, times higher than for the metabolite ([1]; oral administration): 88 times
percentage of the dose excreted in urine as the metabolite [2]: 0.1%
%Aeinf ([2]; 100 mg intravenously, Mean): 0.081%
%Aelast ([2]; 100 mg intravenously, Mean): 0.086%
%Aeinf ([2]; 100 mg intravenously, Median): 0.045%
%Aelast ([2]; 100 mg intravenously, Median): 0.043%
%Aeinf ([2]; 100 mg intravenously, Min-max): 0.0039-0.17%
%Aelast ([2]; 100 mg intravenously, Min-max): 0.0028-0.21%
%Aeinf ([2]; 110.2 mg orally, Mean): 0.109%
%Aelast ([2]; 110.2 mg orally, Mean): 0.113%
%Aeinf ([2]; 110.2 mg orally, Median): 0.104%
%Aelast ([2]; 110.2 mg orally, Median): 0.104%
%Aeinf ([2]; 110.2 mg orally, Min-max): 0.034-0.22%
%Aelast ([2]; 110.2 mg orally, Min-max): 0.019-0.21%

Cn1c(CCCC(=O)O)nc2cc(N(CCCl)CCCl)ccc21 [bendamustine, 4-[5-[bis(2-chloroethyl)amino]-1-methylbenzimidazo-2-yl]butanoic acid]
clearance ([1]; human, plasma, iv, 100 mg): 353 mL/min
Vd ([1]; human, plasma, iv, 100 mg, Mean VSS, intravenous administration): 10.3 L
Vd ([1]; human, plasma, iv, 100 mg, Mean VZ, intravenous administration): 14.7 L
half-life ([1]; human, plasma, iv, 100 mg, Mean t1/2, intravenous administration): ~30 min
half-life ([1]; human, plasma, po, 110.2 mg, Mean t1/2, oral intake): ~30 min
Tmax ([1]; human, plasma, po, 110.2 mg, individual values, oral administration): 15 to 108 min
Tmax ([1]; human, plasma, po, 110.2 mg, oral administration): ~57 min
percentage of the dose excreted in urine unchanged [2]: 2.6%
percentage of the dose excreted in urine unchanged ([2]; listed as Bendamustine): Approximately 2.6%
deaths during the study [5]: No deaths
pH values at which significant hydrolytic decomposition is observed [6]: higher than 5
oral bioavailability, range ([3]; oral capsules, 250-350 mg, patients (Preiss 1985)): 25-94%
